From the supplement of paper PMC10307832

These cell lines were tested with Cn1cnc2c(F)c(Nc3ccc(Br)cc3Cl)c(C(=O)NOCCO)cc21 [Selumetinib] + CC(=O)c1c(C)c2cnc(Nc3ccc(N4CCNCC4)cn3)nc2n(C2CCCC2)c1=O [Palbociclib] (partner 0.5 µM) (assay: relative viability (nuclei count vs DMSO), 5 days (fraction); higher = more cells survive). Settings: first compound 0.02 µM.
Summary of the method: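 Lung cancer cell lines were seeded in 1536-well plates and dosed by pin tool the next day, with either a single drug or a fixed anchor-drug dose combined with five library-drug doses (not always all listed) spaced in √10 steps. Five days later, one step fixed the cells and stained their nuclei (final 0.05% Triton X-100, 1% formaldehyde, 1 ug/ml Hoechst), and nuclei were counted on 4× images. Relative viability is the nuclei count in treated wells divided by the count in vehicle wells, and each value is the median of duplicate plates.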

Cell Line	relative viability
NCI-H522	0.98
PC-14	0.482
NCI-H1666	0.669
NCI-H1755	0.41
NCI-H2023	0.355
EPLC-272H	0.271
LCLC-97TM1	0.188
PC-3 [JPC-3]	0.484
LOU-NH91	0.583
NCI-H647	0.339
NCI-H23	0.494
EMC-BAC-2	0.554
NCI-H2126	0.333
HCC-44	1
NCI-H1734	0.304
NCI-H650	0.395
LK-2	0.772
NCI-H2228	0.566
NCI-H2342	0.476
SK-MES-1	0.304
HARA	0.359
COR-L23	0.311
COR-L 105	0.449
LC-2-ad	0.504

Cell Line	relative viability
LXF-289	0.554
ChaGo-K-1	0.94
NCI-H2170	0.406
NCI-H322M	0.403
HCC-78	0.486
SW 900	0.597
BEN	0.466
HCC-15	0.564
HCC-827	0.497
NCI-H460	0.147
LU99A	0.427
NCI-H2085	0.464
A-427	0.503
NCI-H520	0.211
NCI-H838	0.206
NCI-H1792	0.646
NCI-H3122	0.188
NCI-H1395	0.561
201T	0.357
NCI-H1993	0.592
HOP-62	0.469
NCI-H1355	0.315
NCI-H2405	0.485
NCI-H1437	0.319

Cell Line	relative viability
NCI-H661	0.415
CAL-12T	0.385
H3255	0.318
NCI-H2347	0.401
NCI-H1975	0.517
NCI-H441	0.168
NCI-H1650	0.312
NCI-H1915	0.491
NCI-H2087	0.197
HCC-366	0.3
NCI-H1793	0.267
RERF-LC-KJ	1.03
EKVX	0.285
LCLC-103H	0.467
NCI-H1651	0.512
NCI-H1944	0.303
NCI-H2009	0.15
SW 1573	0.337
ABC-1	0.642
NCI-H358	0.123
NCI-H727	0.473
SK-LU-1	0.381

Same assay, conditions: first compound 0.06325 µM

Cell Line	relative viability
NCI-H522	0.92
PC-14	0.369
NCI-H1666	0.649
NCI-H1755	0.437
NCI-H2023	0.299
EPLC-272H	0.256
LCLC-97TM1	0.213
PC-3 [JPC-3]	0.566
LOU-NH91	0.611
NCI-H647	0.353
NCI-H23	0.393
EMC-BAC-2	0.53
NCI-H2126	0.265
HCC-44	0.971
NCI-H1734	0.332
NCI-H650	0.571
LK-2	0.851
NCI-H2228	0.516
NCI-H2342	0.53
SK-MES-1	0.322
HARA	0.244
COR-L23	0.289
COR-L 105	0.404
LC-2-ad	0.547

Cell Line	relative viability
LXF-289	0.529
ChaGo-K-1	0.966
NCI-H2170	0.43
NCI-H322M	0.413
HCC-78	0.488
SW 900	0.461
BEN	0.53
HCC-15	0.537
NCI-H1648	0.307
HCC-827	0.469
NCI-H460	0.142
LU99A	0.418
NCI-H2085	0.462
A-427	0.496
NCI-H520	0.236
NCI-H838	0.191
NCI-H1792	0.566
NCI-H3122	0.139
NCI-H1395	0.558
201T	0.352
NCI-H1993	0.557
HOP-62	0.489
NCI-H1355	0.284
NCI-H2405	0.434

Cell Line	relative viability
NCI-H1437	0.292
NCI-H661	0.384
CAL-12T	0.26
H3255	0.353
NCI-H2347	0.435
NCI-H1975	0.509
NCI-H441	0.154
NCI-H1650	0.26
NCI-H1915	0.366
NCI-H2087	0.168
HCC-366	0.31
NCI-H1793	0.293
RERF-LC-KJ	0.946
EKVX	0.278
LCLC-103H	0.498
NCI-H1651	0.501
NCI-H1944	0.312
NCI-H2009	0.136
SW 1573	0.294
ABC-1	0.672
NCI-H358	0.125
NCI-H727	0.517
SK-LU-1	0.353

Same assay, conditions: first compound 0.2 µM

Cell Line	relative viability
NCI-H522	0.755
PC-14	0.363
NCI-H1666	0.699
NCI-H1755	0.444
NCI-H2023	0.304
EPLC-272H	0.287
LCLC-97TM1	0.163
